The results in this text go back to patent publication EP1087941B9, “THIOLESTERS AND USES THEREOF” (THE UNITED STATES OF AMERICA, as represented by THE …, priority 1998, dated 1999).

The target in assay [1] is T1, Virion-associated NCp7 proteins from cell-free HIV-1MN (Human immunodeficiency virus type 1 group M subtype B, UniProt P05888).
T1 construct: an attack on the mature NCp7 retroviral zinc fingers in the cell-free virus; endogenous in cells
The experiment in a line: Intravirion NCp7 cross-linking, non-reducing Western blotting. Here is the method: The interaction of zinc finger inhibitors, such as the thiolesters of the invention, with cell-free virus can result in modification of intravirion NCp7 protein and loss of infectivity. Virion-associated NCp7 proteins from cell-free HIV-1MN were treated with thiolester compounds 44 and 45. They were also evaluated by non-reducing Western blotting using HIV-1 NCp7-specific antibodies. […] Cross-linking by compound 45 was due to formation of intermolecular disulfide bonds because reduction with 2-mercaptoethanol (β-ME) completely reversed the gel retardation.
Virion cross linking was performed as described by Rice (1995) Science 270:1194-1197 and Turpin (1997) Antiviral Chem. Chemother. 8:60-67. Briefly, highly purified HIV-1 MN (11.8 µg total protein) was incubated for 2 hour with concentrations of compound. Virions were concentrated and residual compound was removed by centrifugation (18,000 x g, 1 h, 4°C). The viral pellet was solubilized in 0.5 M Tris-HCl,(pH 6.8), 50% glycerol, 8% SDS and 0.4% bromophenol blue and proteins resolved by Western blotting. Western blotting to detect the expression of HIV-1 proteins in U1 cells or virus pellets for virion cross-linking experiments was carried out as described by Turpin (1996) J. Virol. 70:6180-6189. Briefly, 50 µg of total cellular protein for U1 experiments or the total virion pellet (11.8 µg total viral protein) for NCp7 cross linking studies was resolved on 4 to 20% polyacrylamide gels in SDS with Tris-Glycine (Novex, San Diego CA). Samples for reduced gels were boiled for 5 min in the presence of 5% β-ME prior to loading. Resolved proteins were electroblotted on to polyvinylidene difluoride (PVDF) membranes, and HIV-1 specific proteins were detected using a mixture of goat anti- HIV-1 NCp7 and p24 or anti-NCp7 for virion proteins alone (a kind gift of L. E. Henderson, AIDS Vaccine Program NCI-FCRDC, Frederick, MD). Western blots were developed using standard chemiluminescence methodologies, as produced and described by Dupont-NEN, Wilmington, DE.
Purified concentrated retrovirus and antisera against the purified NC protein of the virus can be used to test the ability of a specific compound to penetrate the virus and react with the NC protein by forming disulfide complexes in the core of the virus. Compound are mixed with the whole retrovirus under reaction conditions appropriate for the compound. The virus is then removed from the reagent by centrifugation and disrupted in, e.g., standard SDS-PAGE sample buffer with (reduced) and without (non-reduced) 2-mercaptoethanol. […] Thus, compounds of interest (i.e., those which cause cross-linking), including the thiolesters of the invention, reduce the amount of monomeric zinc finger protein detected.

The subject of assay [2] is HIV-1 virus. The experiment in a line: Virus inactivation determined by PCR assay for intracellularly synthesized viral RNA. Type of assay: cell-based. The source says: The thiolester-treated virions can also be tested for infectivity. The virions are suspended in media (rather than solubilized) and added to target cells. The cultures are then examined to determine whether the virions are still active. To determine whether the treated virus particles are active, the cells are monitored for the presence of intracellularly-synthesized viral RNA using, for example, the polymerase chain reaction (PCR) (Rice (1993) Proc. Natl. Acad. Sci. USA 90:9721; Turpin (1996) J. Virol. 70:6180). Alternatively, cytoprotection assays can be used (Weislow (1993) J. Natl. Cancer Inst. 81:577).
An example of a compound which can be used as a control in the gel mobility shift assay is azodicarbonamide (ADA), a compound which is commercially available from the Aldrich Chemical Company (Milwaukee, WI).

Assay [3] deals with CEM-SS cells. The experiment in a line: cells. Conditions: Homo sapiens, CEM-SS. The class given is cell-based. An excerpt: (§1) One exemplary means to determine antiviral activity is with CEM-SS cells and virus (e.g., HIV-1RF) (MOI = 0.01) using the XTT (2,3-bis[2-methoxy- 4-nitro-5-sulfophenyl] -5- [(phenylamino)carbonyl]-2H-tetrazolium hydroxide) cytoprotection assay, as described by Rice (1993) PNAS 90:9721-9724, and Rice (1997) Antimicrob. Agents Chemother. 41:419-426. Briefly, cells are infected with HIV-1RF (or other virus to be tested) in the presence of various dilutions of test compounds (thiolesters and controls). The cultures are incubated for seven days. During this time control cultures without protective compounds (i.e., compounds with anti-viral activity) replicate virus, induce syncytia, and result in about 90% cell death. The cell death is measured by XTT dye reduction. XTT is a soluble tetrazolimn dye that measures mitochondrial energy output, similar to MTT. Positive controls using dextran sulfate (an attachment inhibitor) or 3'-Azido -2'-3'-dideoxythymidine, AZT (a reverse transcriptase inhibitor) are added to each assay. Individual assays are done in duplicate using a sister plate method.
(§2) Effective antiviral concentrations providing 50% cytoprotection (EC50), and cellular growth inhibitory concentrations causing 50% cytotoxicity (IC50) are calculated.

Assay [4] relates to HIV-1RF. The assay is described as follows: XTT cytoprotection assay (antiviral activity). Type of assay: cell-based. The settings on record: for EC50: Human immunodeficiency virus 1, read-out: Antiviral Activity EC50.
Source text: as §1, §2

Assay [5] addresses T2, recombinant HIV-1 NCp7 protein (Human immunodeficiency virus type 1 group M subtype B, UniProt P03347).
T2 construct: within the nucleocapsid p7 (NCp7) protein portion of the polyprotein
The assay is described as follows: Trp37 zinc finger fluorescence (zinc ejection) assay. The class given is biochemical. Here is the method: Zinc finger reactivity was measured using a Zn specific fluorochrome, TSQ, N-(6-methoxy-8-quinolyl) -p-toluenesulfonamide, assay or a Trp37 zinc finger fluorescence assay. Fluorescent measurements of the Trp37 residue in the C-terminal finger of recombinant HIV-1 NCp7 protein were performed as described by Rice (1995) Science 270:1194-1197; Rice (1997) Antimicrob. Agents Chemother. 41:419-426. Measurement of Zn ejection from both fingers was measured using the Zn-selective fluorchrome probe TSQ (Molecular Probes, Eugene OR) as described by Rice (1996) J. Med. Chem 39:3606-3616. Measurement of the ability of NCp7 to bind to a DNA oligomer, a 44 mer: […] (SEQ ID NO:1), analogous to the HIV-1 RNA packaging site was carried out as described by Huang (1998) J. Med. Chem. 41:1371-1381, see also, Rossio (1998) HIV Pathogenesis and Treatment: Keystone Symposium on Molecular and Cellular Biology, Abstract # 4082. Briefly, 50 nM NCp7 was treated with test compounds for 1 hour at RT in […] buffer containing 10% glycerol and 50 mM Tris-HCl (pH 7.5). Labeled oligomer (0.1 picomole, end labeled [^32P]) was added in an equal volume of buffer containing 10% glycerol, 50 mM Tris-HCl (pH 7.5), 400 mM KCl and 40 mM MgCl2. The reaction was continued for 15 min at room temperature, and a total of […] (or 1/4 of the total reaction volume) was separated on nondenaturing 4.5% polyacrylamide gels in 0.5X Tris-Borate electrophoresis buffer. NCp7-oligomer complexes were visualized by autoradiography.
Changes in the intrinsic fluorescence of aromatic protein moieties are commonly used to monitor a reaction which involves a change in protein conformation. In the present invention, fluorescence can be used to monitor the loss of metal ion from a zinc finger, e.g., the loss of zinc from a CCHC retroviral zinc finger protein, after contact with a thiolester of the invention. The intrinsic fluorescence of Trp 37 in the second zinc finger of HIV-1 NC protein has been used to monitor nucleic acid binding and conformation of the zinc finger complex (see, Summers (1992) supra).
Zinc ejection is measured by the ability of compounds to chemically attack the cysteines in purified NCp7 protein resulting in a loss of fluorescence due to the movement of the tryptophan 37 residue from an exposed to an internal position on the protein. Zinc ejection is measured and expressed as either percent decrease in total fluorescence or decrease in relative fluorescence units per min during a 30 min assay (RFU/min). A thiolester is considered within the scope of the invention if any amount of zinc ejection is detected. For example, compound 50 has a zinc ejection rate of 0.86 RFU/min.

[6] abbreviates: read-out: Antiviral Activity IC50.
Setting [7] is: Table 3, average decrease in relative fluorescence.

Read-outs that look alike come from different tables or passages of the source.

Turning to `Cc1cn([C@H]2C[C@H](N=[N+]=[N-])[C@@H](CO)O2)c(=O)[nH]c1=O` [AZT, 3'-Azido-2'-3'-dideoxythymidine, reference compound], the “intravirion NCp7 cross-linking” value in assay [1] is reported as “failed to cross-link NCp7”.
In the case of `NC(=O)N=NC(N)=O` [ADA, azodicarbonamide], the “inactivation of HIV-1 virus” value in assay [2] was “inactivates HIV-1 virus”.
As to `CC(=O)NS(=O)(=O)c1ccc(NC(=O)c2ccccc2NC(=O)CCl)cc1` [Compound 39], the IC50 in assay [3] (read-out: Antiviral Activity IC50%) came to 202 µM. Also, the EC50 in assay [4] was greater than 316 µM. Besides, the antiviral activity result in assay [4] (result in words) was “completely inactive”. In assay [5] (Table 5, average decrease in relative fluorescence units over 30 min), the “Zinc Finger Reactivity RFU/ min” value is reported as 0.3 RFU/ min.
Consider `COc1ccc(C(=O)Nc2ccc(S(=O)(=O)c3ccc(NC(=O)c4ccccc4SSc4ccccc4C(=O)Nc4ccc(S(=O)(=O)c5ccc(NC(=O)c6ccc(OC)cc6)cc5)cc4)cc3)cc2)cc1` [Compound 29D], for which the IC50 in assay [3] (setting [6]) was 79.6 µM. The EC50 in assay [4] turned out to be 3.8 µM. Further, in assay [5] (setting [7]), the “Zinc Finger Reactivity RFU/ min” value is 6.9 RFU/ min.
For `O=C(Nc1ccc(S(=O)(=O)c2ccc(NC(=O)c3ccccc3SSc3ccccc3C(=O)Nc3ccc(S(=O)(=O)c4ccc(NC(=O)c5ccc([N+](=O)[O-])cc5)cc4)cc3)cc2)cc1)c1ccc([N+](=O)[O-])cc1` [Compound 32D] the same measures were greater than 316 µM, 78 µM and 2.9 RFU/ min.
In the case of `NS(=O)(=O)c1ccc(Cn2sc3ccccc3c2=O)cc1` [23 BITA], the IC50 in assay [3] (setting [6]) and in assay [3] (read-out: IC50 / cellular toxicity) was 53.7 µM throughout. The EC50 in assay [4] worked out at 13.8 µM. Further, the “Zinc Finger Reactivity RFU/30 min” value in assay [5] (Table 2, average decrease in relative fluorescence) is 2.7 RFU/30 min.
